Patent US9326985B2, “Heteroaryl pyridone and aza-pyridone amide compounds” (Genentech, Inc., priority 2013, dated 2016)

Columns and labels:
[1] = target: T1, full length human wildtype Btk (Homo sapiens, UniProt Q06187); assay: Biochemical Btk Assay (BTK LC3K)
T1 construct: V5 (C); 6xHis (C); made in house; host or cells: Sf9 insect cells (baculovirus, pFastBac)
Method: A generalized procedure for a standard biochemical Btk, Kinase Assay that can be used to test Formula I compounds is as follows. A master mix minus Btk enzyme is prepared containing 1× Cell Signaling kinase buffer (25 mM Tris-HCl, pH 7.5, 5 mM beta-glycerophosphate, 2 mM dithiothreitol, 0.1 mM Na3VO4, 10 mM MgCl2), 0.5 μM Promega PTK Biotinylated peptide substrate 2, and 0.01% BSA. A master mix plus Btk enzyme is prepared containing 1× Cell Signaling kinase buffer, 0.5 μM (micromolar) PTK Biotinylated peptide substrate 2, 0.01% BSA, and 100 ng/well (0.06 mU/well) Btk enzyme. Btk enzyme is prepared as follows: full length human wildtype Btk (accession number NM-000061) with a C-terminal V5 and 6×His tag was subcloned into pFastBac® vector (Invitrogen/Life Technologies) for making baculovirus carrying this epitope-tagged Btk. […] Passage 3 virus is used to infect Sf9 cells to overexpress the recombinant Btk protein. The Btk protein is then purified to homogeneity using Ni-NTA column. […] A solution of 200 μM ATP is prepared in water and adjusted to pH 7.4 with 1N NaOH. A quantity of 1.25 μL (microliter) of compounds in 5% DMSO is transferred to a 96-well ½ area Costar polystyrene plate. Compounds are tested singly and with an 11-point dose-responsive curve (starting concentration is 10 μM; 1:2 dilution). A quantity of 18.75 μL of master mix minus enzyme (as a negative control) and master mix plus enzyme is transferred to appropriate wells in 96-well ½ area costar polystyrene plate. 5 μL of 200 μM ATP is added to that mixture in the 96-well ½ area Costar polystyrene plate for final ATP concentration of 40 μM. The reaction is allowed to incubate for 1 hour at room temperature. The reaction is stopped with Perkin Elmer 1× detection buffer containing 30 mM EDTA, 20 nM SA-APC, and 1 nM PT66 Ab. […] IC50 values are subsequently calculated. Alternatively, the Lanthascreen assay can be used to evaluate Btk activity through quantification of its phosphorylated peptide product. The FRET (Fluorescence Resonance Energy Transfer) that occurs between the fluorescein on the peptide product and the terbium on the detection antibody decreases with the addition of inhibitors of Btk that reduce the phosphorylation of the peptide. In a final reaction volume of 25 uL, Btk (h) (0.1 ng/25 ul reaction) is incubated with 50 mM Hepes pH 7.5, 10 mM MgCl2, 2 mM MnCl2, 2 mM DTT, 0.2 mM NaVO4, 0.01% BSA, and 0.4 uM fluorescein poly-GAT. […] After incubation for 60 minutes at room temperature, the reaction is stopped by the addition of a final concentration of 2 nM Tb-PY20 detection antibody in 60 mM EDTA for 30 minutes at room temperature.

[2] = tested on: CD69 by B lymphocytes in human whole blood activated with goat F(ab')2 anti-human IgM; assay: CD69 Whole Blood Assay (CD69 Hu Blood FACS); type: cell-based; settings: Lymphocyte, CD69 positive of CD20 positive cells
Procedure, shortened: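 Heparinized human whole blood from healthy drug-free non-smokers preincubated 30 min at 37 °C with ten-point 3-fold compound dilutions, then stimulated with goat F(ab′)2 anti-human IgM (50 μg/ml final) for 20 h. CD69 on B cells read by flow cytometry as mean fluorescence intensity.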

T1 sequence (Q06187 whole entry): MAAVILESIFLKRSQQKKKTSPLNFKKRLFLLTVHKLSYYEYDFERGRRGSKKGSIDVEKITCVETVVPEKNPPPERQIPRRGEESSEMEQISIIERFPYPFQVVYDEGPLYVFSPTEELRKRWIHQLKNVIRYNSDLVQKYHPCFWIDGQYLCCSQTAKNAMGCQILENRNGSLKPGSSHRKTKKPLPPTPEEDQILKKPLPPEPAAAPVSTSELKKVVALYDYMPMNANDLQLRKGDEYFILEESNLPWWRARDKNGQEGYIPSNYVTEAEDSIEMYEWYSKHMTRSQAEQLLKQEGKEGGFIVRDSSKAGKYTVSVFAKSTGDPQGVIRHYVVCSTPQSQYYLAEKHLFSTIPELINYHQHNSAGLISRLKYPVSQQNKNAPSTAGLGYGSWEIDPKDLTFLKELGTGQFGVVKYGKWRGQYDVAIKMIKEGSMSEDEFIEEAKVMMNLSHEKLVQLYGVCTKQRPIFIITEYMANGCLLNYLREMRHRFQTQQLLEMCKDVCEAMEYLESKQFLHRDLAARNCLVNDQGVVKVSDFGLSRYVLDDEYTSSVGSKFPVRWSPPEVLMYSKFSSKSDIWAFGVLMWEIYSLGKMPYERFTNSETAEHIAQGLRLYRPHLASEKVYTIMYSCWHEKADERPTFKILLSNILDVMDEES

For CN(C)C(=O)C1C[C@@H]1C(=O)Nc1cc(-c2ccnc(-n3ncc4cc(C(C)(C)C)cc(F)c4c3=O)c2CO)cn(C)c1=O (single isomer, unassigned) [Compound 171, N2-[5-[2-(6-tert-butyl-8-fluoro-1-oxo-phthalazin-2-yl)-3-(hydroxymethyl)-4-pyridyl]-1-methyl-2-oxo-3-pyridyl]-N1,N1-dimethyl-cyclopropane-1,2-dicarboxamide], the Ki ([1]; Table 2) was 0.0915 µM and the IC50 ([2]; Table 2, anti-IgM stimulation) was greater than 4.8 µM.
Work on CC1CC1C(=O)Nc1cc(-c2ccnc(N3CCn4c(cc5c4CC(C)(C)C5)C3=O)c2CO)cn(C)c1=O (stereo not shown) [Compound 106, N-[5-[2-(7,7-dimethyl-4-oxo-1,2,6,8-tetrahydrocyclopenta[3,4]pyrrolo[3,5-b]pyrazin-3-yl)-3-(hydroxymethyl)-4-pyridyl]-1-methyl-2-oxo-3-pyridyl]-2-methyl-cyclopropanecarboxamide] yielded a Ki ([1]; Table 1) of 0.0106 µM and an IC50 ([2]; Table 1, anti-IgM stimulation) of 0.373 µM.
For Cn1cc(-c2ccnc(-c3nc4cc(C(C)(C)C)ccc4n3C)c2CO)cc(NC(=O)C2CC2)c1=O [Compound 164, N-[5-[2-(5-tert-butyl-1-methyl-benzimidazol-2-yl)-3-(hydroxymethyl)-4-pyridyl]-1-methyl-2-oxo-3-pyridyl]cyclopropanecarboxamide], the Ki ([1]; Table 2) was greater than 0.5 µM and the IC50 ([2]; Table 2, anti-IgM stimulation) was greater than 10.6 µM.
With Cn1cc(-c2cccc(N3CCc4c(cc5n4CCCC5)C3=O)c2CO)cc(NC(=O)C2CC2)c1=O [Compound 139, N-[5-[2-(hydroxymethyl)-3-(1-oxo-3,4,6,7,8,9-hexahydropyrido[3,4-b]indolizin-2-yl)phenyl]-1-methyl-2-oxo-3-pyridyl]cyclopropanecarboxamide] the Ki ([1]; Table 2) was 0.0078 µM and the IC50 ([2]; Table 2, anti-IgM stimulation) was 0.689 µM.
Molecule CN1CC[C@]2(C[C@@H]2C(=O)Nc2cc(-c3ccnc(-n4ncc5cc(C(C)(C)C)cc(F)c5c4=O)c3CO)cn(C)c2=O)C1 (single isomer, unassigned) [Compound 173] has a Ki ([1]; Table 2) of 0.026 µM and an IC50 ([2]; Table 2, anti-IgM stimulation) greater than 4.8 µM.
For CN1CCC2(CC1)C[C@H]2C(=O)Nc1cc(-c2ccnc(-n3ncc4cc(C(C)(C)C)cc(F)c4c3=O)c2CO)cn(C)c1=O (single isomer, unassigned) [Compound 165], the Ki ([1]; Table 2) was 0.0408 µM and the IC50 ([2]; Table 2, anti-IgM stimulation) was greater than 4.8 µM.
Cc1cc(C)n(CC(=O)Nc2cc(-c3ccnc(N4CCn5c(cc6c5CC(C)(C)C6)C4=O)c3CO)cn(C)c2=O)n1 [Compound 108, N-[5-[2-(7,7-dimethyl-4-oxo-1,2,6,8-tetrahydrocyclopenta[3,4]pyrrolo[3,5-b]pyrazin-3-yl)-3-(hydroxymethyl)-4-pyridyl]-1-methyl-2-oxo-3-pyridyl]-2-(3,5-dimethylpyrazol-1-yl)acetamide] showed a Ki ([1]; Table 1) of 0.0516 µM and an IC50 ([2]; Table 1, anti-IgM stimulation) of 2.4 µM.
Molecule Cn1cc(C(=O)Nc2cc(-c3ccnc(N4CCn5c(cc6c5CC(C)(C)C6)C4=O)c3CO)cn(C)c2=O)cn1 [Compound 110, N-[5-[2-(7,7-dimethyl-4-oxo-1,2,6,8-tetrahydrocyclopenta[3,4]pyrrolo[3,5-b]pyrazin-3-yl)-3-(hydroxymethyl)-4-pyridyl]-1-methyl-2-oxo-3-pyridyl]-1-methyl-pyrazole-4-carboxamide] has a Ki ([1]; Table 1) greater than 0.167 µM and an IC50 ([2]; Table 1, anti-IgM stimulation) greater than 2.6 µM.
Work on Cn1cc(-c2ccnc(N3CCc4cc(OC(F)F)cc(F)c4C3=O)c2CO)cc(NC(=O)[C@@H]2C[C@@H]2F)c1=O [Compound 151, (1S,2S)—N-[5-[2-[6-(difluoromethoxy)-8-fluoro-1-oxo-3,4-dihydroisoquinolin-2-yl]-3-(hydroxymethyl)-4-pyridyl]-1-methyl-2-oxo-3-pyridyl]-2-fluoro-cyclopropanecarboxamide] yielded a Ki ([1]; Table 2) of 0.066 µM and an IC50 ([2]; Table 2, anti-IgM stimulation) greater than 5.3 µM.
For Cn1cc(-c2cc(F)cc(N3CCn4c(cc5c4CC(C)(C)C5)C3=O)c2CO)cc(NC(=O)C2CC2)c1=O [Compound 130, N-[5-[3-(7,7-dimethyl-4-oxo-1,2,6,8-tetrahydrocyclopenta[3,4]pyrrolo[3,5-b]pyrazin-3-yl)-5-fluoro-2-(hydroxymethyl)phenyl]-1-methyl-2-oxo-3-pyridyl]cyclopropanecarboxamide], the Ki ([1]; Table 2) was 0.00129 µM and the IC50 ([2]; Table 2, anti-IgM stimulation) was 0.035 µM.
Cn1cc(-c2cccc(N3CCn4c(cc5c4CC(C)(C)C5)C3=O)c2CO)cc(NC(=O)C2CC2)c1=O [Compound 129, N-[5-[3-(7,7-dimethyl-4-oxo-1,2,6,8-tetrahydrocyclopenta[3,4]pyrrolo[3,5-b]pyrazin-3-yl)-2-(hydroxymethyl)phenyl]-1-methyl-2-oxo-3-pyridyl]cyclopropanecarboxamide] showed a Ki ([1]; Table 2) of 0.00378 µM and an IC50 ([2]; Table 2, anti-IgM stimulation) of 0.0512 µM.
With Cn1cc(-c2ccnc(N3CCn4c(cc5c4CC(C)(C)C5)C3=O)c2CO)cc(NC(=O)[C@H]2CC23CC3)c1=O (single isomer, unassigned) [Compound 141] the Ki ([1]; Table 2) was 0.0058 µM and the IC50 ([2]; Table 2, anti-IgM stimulation) was 1.6 µM.
Cn1cc(-c2ccnc(N3CCn4c(cc5c4CC(C)(C)C5)C3=O)c2CO)cc(NC(=O)c2ccccc2)c1=O [Compound 114, N-[5-[2-(7,7-dimethyl-4-oxo-1,2,6,8-tetrahydrocyclopenta[3,4]pyrrolo[3,5-b]pyrazin-3-yl)-3-(hydroxymethyl)-4-pyridyl]-1-methyl-2-oxo-3-pyridyl]benzamide] was tested, and the Ki ([1]; Table 1) was 0.236 µM and the IC50 ([2]; Table 1, anti-IgM stimulation) was greater than 5.4 µM.
With Cn1cc(-c2ccnc(N3CCc4cc(OC(F)(F)F)ccc4C3=O)c2CO)cc(NC(=O)C2CC2)c1=O [Compound 158, N-[5-[3-(hydroxymethyl)-2-[1-oxo-6-(trifluoromethoxy)-3,4-dihydroisoquinolin-2-yl]-4-pyridyl]-1-methyl-2-oxo-3-pyridyl]cyclopropanecarboxamide] the Ki ([1]; Table 2) was 0.262 µM and the IC50 ([2]; Table 2, anti-IgM stimulation) was greater than 4.4 µM.
For Cn1cc(-c2cc(F)cc(N3CCn4c(cc5c4CC(C)(C)C5)C3=O)c2CO)cc(NC(=O)[C@@H]2C[C@@H]2F)c1=O [Compound 172, (1S,2S)—N-[5-[3-(7,7-dimethyl-4-oxo-1,2,6,8-tetrahydrocyclopenta[3,4]pyrrole[3,5-b]pyrazin-3-yl)-5-fluoro-2-(hydroxymethyl)phenyl]-1-methyl-2-oxo-3-pyridyl]-2-fluoro-cyclopropanecarboxamide], the Ki ([1]; Table 2) was 0.0008 µM and the IC50 ([2]; Table 2, anti-IgM stimulation) was 0.017 µM.
Molecule COCC(=O)Nc1cc(-c2ccnc(-n3ncc4cc(C(C)(C)C)cc(F)c4c3=O)c2CO)cn(C)c1=O [Compound 156, N-[5-[2-(6-tert-butyl-8-fluoro-1-oxo-phthalazin-2-yl)-3-(hydroxymethyl)-4-pyridyl]-1-methyl-2-oxo-3-pyridyl]-2-methoxy-acetamide] has a Ki ([1]; Table 2) of 0.021 µM and an IC50 ([2]; Table 2, anti-IgM stimulation) greater than 4.5 µM.
Cn1cc(-c2cc(F)cc(N3CCc4c(cc5n4CCCC5)C3=O)c2CO)cc(NC(=O)[C@@H]2C[C@@H]2F)c1=O [Compound 167, (1S,2S)-2-fluoro-N-[5-[5-fluoro-2-(hydroxymethyl)-3-(1-oxo-3,4,6,7,8,9-hexahydropyrido[3,4-b]indolizin-2-yl)phenyl]-1-methyl-2-oxo-3-pyridyl]cyclopropanecarboxamide] was tested, and the Ki ([1]; Table 2) was 0.0024 µM and the IC50 ([2]; Table 2, anti-IgM stimulation) was 0.245 µM.
